Key:
[1] = target: T1, Serine/threonine-protein kinase Chk1 (Homo sapiens, UniProt O14757)
T1 sequence (O14757 whole entry): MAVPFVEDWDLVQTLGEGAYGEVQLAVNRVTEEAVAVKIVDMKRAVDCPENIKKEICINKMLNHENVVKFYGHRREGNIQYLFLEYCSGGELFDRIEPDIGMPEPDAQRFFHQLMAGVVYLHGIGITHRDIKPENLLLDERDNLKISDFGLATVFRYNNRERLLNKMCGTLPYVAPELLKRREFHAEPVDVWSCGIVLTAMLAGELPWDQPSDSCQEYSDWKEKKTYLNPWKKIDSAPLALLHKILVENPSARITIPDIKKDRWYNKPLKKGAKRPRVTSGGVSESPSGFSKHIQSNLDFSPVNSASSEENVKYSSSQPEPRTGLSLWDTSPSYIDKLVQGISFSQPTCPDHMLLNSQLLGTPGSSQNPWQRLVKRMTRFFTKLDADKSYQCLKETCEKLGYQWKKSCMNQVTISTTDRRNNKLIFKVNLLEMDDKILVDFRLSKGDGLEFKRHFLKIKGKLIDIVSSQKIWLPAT

[2] = target: T1, Serine/threonine-protein kinase Chk1; assay: Inhibition of CHK1 in human U2OS cells assessed as phosphorylation of H2AX after 2 hrs by FITC/propidium iodide staining-based immunofluorescence assay in presence of hydroxyurea; format: cell-based

Question: Which IC50 [1] does the source give for O=C(Nc1ccccc1N1CCNCC1)c1csc(-n2nnc3ccccc32)n1 here?
Answer: 110 nM

Question: For O=C(Nc1ccccc1N1CCNCC1)c1csc(NC2Cc3ccccc3C2)n1, which IC50 [1] is on record?
Answer: 6900 nM

Question: Which IC50 [1] does the source give for O=C(Nc1cnccc1N1CCNCC1)c1csc(-c2ccc3c(c2)CCO3)n1 here?
Answer: 55 nM

Question: Which results are given for O=C(Nc1cnccc1N1CCNCC1)c1csc(N2Cc3ccccc3C2=O)n1?
Answer: EC50 [2]: 100 nM; IC50 [1]: 2 nM

Question: With O=C(Nc1ccccc1N1CCNCC1)c1csc(-n2cccn2)n1 as the compound, how does the IC50 [1] read?
Answer: 120 nM

Question: With Cc1nc2c(s1)CN(c1nc(C(=O)Nc3ccccc3N3CCNCC3)cs1)C2 as the compound, how does the IC50 [1] read?
Answer: 280 nM

Question: Which EC50 [2] does the source give for O=C(Nc1ccccc1N1CCNCC1)c1csc(-n2ncc3ccccc32)n1 here?
Answer: 750 nM

Question: What about the IC50 [1] of the same compound?
Answer: 2 nM

Question: CN(c1ccccc1)c1nc(C(=O)Nc2ccccc2N2CCNCC2)cs1 was tested. Which IC50 [1] did it give?
Answer: 240 nM

Question: For O=C(Nc1ccccc1N1CCNCC1)c1csc(N2Cc3cn[nH]c3C2)n1, which IC50 [1] is on record?
Answer: 62 nM

Question: How did the IC50 [1] turn out when O=C(Nc1ccccc1N1CCNCC1)c1csc(N2CCc3ccccc3C2)n1 was run?
Answer: 38 nM

Question: For COc1ccc2c(c1)C(=O)N(c1nc(C(=O)Nc3cc(F)ccc3N3CCNCC3)cs1)C2, which EC50 [2] is on record?
Answer: 6000 nM

Question: And the IC50 [1]?
Answer: 4 nM

Question: How did the IC50 [1] turn out when O=C(Nc1ccccc1N1CCNCC1)c1csc(N2CCc3[nH]cnc3C2)n1 was run?
Answer: 4000 nM

Question: With O=C(Nc1ccccc1N1CCNCC1)c1csc(N2Cc3ccccc3C2)n1 as the compound, how does the EC50 [2] read?
Answer: 1400 nM

Question: And the IC50 [1]?
Answer: 8 nM

Question: O=C(Nc1ccccc1N1CCNCC1)c1csc(NCc2ccccc2)n1 was tested. Which IC50 [1] did it give?
Answer: 11000 nM

Question: For O=C(Nc1cnccc1N1CCNCC1)c1csc(-c2ccc(Oc3ccccc3)cc2)n1, which IC50 [1] is on record?
Answer: 430 nM

Question: For O=C(Nc1ccccc1N1CCNCC1)c1csc(N2CCCc3ccccc32)n1, which IC50 [1] is on record?
Answer: 38 nM

Question: How did the IC50 [1] turn out when O=C(Nc1ncccc1N1CCNCC1)c1csc(-c2ccc3c(c2)CCO3)n1 was run?
Answer: 4700 nM

Question: How did the EC50 [2] turn out when O=C(Nc1cnccc1N1CCNCC1)c1csc(-c2ccc3sccc3c2)n1 was run?
Answer: 1250 nM

Question: What about the IC50 [1] of the same compound?
Answer: 7 nM

Question: For O=C(Nc1cnccc1N1CCNCC1)c1csc(N2Cc3ccccc3C2)n1, which EC50 [2] is on record?
Answer: 900 nM

Question: And the IC50 [1]?
Answer: 8 nM

Question: O=C(Nc1ccccc1N1CCNCC1)c1csc(N2CCc3c(F)ccc(F)c3C2)n1 was tested. Which IC50 [1] did it give?
Answer: 1300 nM

Question: O=C(Nc1ccccc1N1CCNCC1)c1csc(-n2ccnc2)n1 was tested. Which IC50 [1] did it give?
Answer: 10000 nM

Question: What does the source list for COc1ccc2c(c1)C(=O)N(c1nc(C(=O)Nc3cnc(C)cc3N3CCNCC3)cs1)C2?
Answer: EC50 [2]: 1000 nM; IC50 [1]: 10 nM

Question: For Cc1ncc2c(n1)CN(c1nc(C(=O)Nc3ccccc3N3CCNCC3)cs1)C2, which IC50 [1] is on record?
Answer: 5700 nM

Question: With O=C(Nc1ccccc1N1CCNCC1)c1csc(N2CCc3sccc3C2)n1 as the compound, how does the IC50 [1] read?
Answer: 39 nM

Question: For COc1ccc2c(c1)C(=O)N(c1nc(C(=O)Nc3cnc4ccccc4c3N3CCNCC3)cs1)C2, which IC50 [1] is on record?
Answer: 5200 nM

Question: O=C(Nc1cnccc1N1CCNCC1)c1csc(-n2ncc3ccccc32)n1 was tested. Which EC50 [2] did it give?
Answer: 75 nM

Question: And the IC50 [1]?
Answer: 3 nM

Question: O=C(Nc1ccccc1N1CCNCC1)c1csc(Nc2n[nH]c3ccccc23)n1 was tested. Which EC50 [2] did it give?
Answer: 350 nM

Question: What about the IC50 [1] of the same compound?
Answer: 2 nM

Question: With O=C(Nc1cnccc1N1CCNCC1)c1csc(Nc2n[nH]c3ccccc23)n1 as the compound, how does the EC50 [2] read?
Answer: 40 nM

Question: And the IC50 [1]?
Answer: 3 nM

Question: Which EC50 [2] does the source give for O=C(Nc1ccccc1N1CCNCC1)c1csc(Nc2cc(-c3ccccc3)n[nH]2)n1 here?
Answer: 7500 nM

Question: What about the IC50 [1] of the same compound?
Answer: 14 nM

Question: With COc1cc2c(cc1OC)CN(c1nc(C(=O)Nc3ccccc3N3CCNCC3)cs1)CC2 as the compound, how does the IC50 [1] read?
Answer: 29 nM

Question: How did the EC50 [2] turn out when O=C(Nc1cnccc1N1CCNCC1)c1csc(-c2cc3ccccc3s2)n1 was run?
Answer: 1000 nM

Question: What about the IC50 [1] of the same compound?
Answer: 3 nM

Question: O=C(Nc1ccccc1N1CCNCC1)c1csc(N2Cc3ccncc3C2)n1 was tested. Which IC50 [1] did it give?
Answer: 190 nM

Question: With Cn1nc(-c2ccccc2)cc1Nc1nc(C(=O)Nc2ccccc2N2CCNCC2)cs1 as the compound, how does the IC50 [1] read?
Answer: 4500 nM

Question: How did the IC50 [1] turn out when COc1ccc2c(c1)C(=O)N(c1nc(C(=O)Nc3ccnnc3N3CCNCC3)cs1)C2 was run?
Answer: 281 nM

Question: Which IC50 [1] does the source give for O=C(Nc1ccccc1N1CCNCC1)c1csc(Nc2ccccc2)n1 here?
Answer: 92 nM

Question: For COc1ccc(-c2cc(N)n(-c3nc(C(=O)Nc4ccccc4N4CCNCC4)cs3)n2)cc1, which IC50 [1] is on record?
Answer: 980 nM

Question: With COc1ccc(-c2cc(Nc3nc(C(=O)Nc4ccccc4N4CCNCC4)cs3)[nH]n2)cc1 as the compound, how does the EC50 [2] read?
Answer: 3750 nM

Question: And the IC50 [1]?
Answer: 3 nM

Question: For O=C(Nc1ccncc1N1CCNCC1)c1csc(-c2ccc3c(c2)CCO3)n1, which IC50 [1] is on record?
Answer: 230 nM

Question: With COc1ccc2c(c1)C(=O)N(c1nc(C(=O)Nc3cncnc3N3CCNCC3)cs1)C2 as the compound, how does the IC50 [1] read?
Answer: 46 nM

Question: CN(Cc1ccccc1)c1nc(C(=O)Nc2ccccc2N2CCNCC2)cs1 was tested. Which IC50 [1] did it give?
Answer: > 50000 nM

Question: What does the source list for COc1ccc2c(c1)C(=O)N(c1nc(C(=O)Nc3ccccc3N3CCNCC3)cs1)C2?
Answer: EC50 [2]: 250 nM; IC50 [1]: 5 nM

Question: Which IC50 [1] does the source give for O=C(Nc1cccnc1N1CCNCC1)c1csc(-c2ccc3c(c2)CCO3)n1 here?
Answer: 870 nM

Question: How did the IC50 [1] turn out when O=C(Nc1cnccc1N1CCNCC1)c1csc(-c2ccc3occc3c2)n1 was run?
Answer: 28 nM

Question: O=C(Nc1cnccc1N1CCNCC1)c1csc(-c2ccc3[nH]ccc3c2)n1 was tested. Which EC50 [2] did it give?
Answer: 1000 nM

Question: What about the IC50 [1] of the same compound?
Answer: 10 nM
